Patent publication US5482943A, “(6-fluoro-1,2-benzisoxazol-3-yl)-1-piperidinyl-alkyl-(2, 9-disubstituted-4H-pyrido[1,2-a]pyrimidin-4-one) derivatives” (Janssen Pharmaceutica N.V., priority 1990, dated 1996)

Columns and labels:
dopamine [1] = test: Apomorphine antagonism in dogs (absence of apomorphine-induced emesis); format: in vivo, dog; details: Canis lupus familiaris
Protocol: Apomorphine Antagonism in Dogs
This test is described in Psychopharmacol. 78, 210-213 (1982) and provides--besides a measure of the potency--a good measure of the duration of action of the tested compounds as dopamine antagonists. Apomorphine (0.31 mg/kg, sc; 4 times the ED95) induced emesis in all control dogs. At different time intervals before the apomorphine challenge, the dogs were pretreated with different doses (iv, sc or po) of the test compound (1). Complete absence of emesis for 1 hour after the challenge was adopted as the criterion for apomorphine antagonism in dogs. Listed are the ED50 values (mg/kg) obtained with compound (1) at different intervals after iv, sc or po administration.

dopamine [2] = test: Amphetamine antagonism in rats (agitation and oxygen hyperconsumption); format: in vivo; details: Rattus norvegicus, 0.75 h, compound sc, after 45 min amphetamine 2.5 mg/kg sc
Protocol: Amphetamine Antagonism in Rats
This test procedure is described in Industrial Pharmacology, Part II, Antidepressants, eds, S. Fielding and H. Lal, p. 125-141, Futura Publishing Company (1975). Solvent (controls) or the test compound (1) were injected sc, followed after 45 min by amphetamine (2.5 mg/kg, sc). Starting 15 min after the amphetamine injection, agitation and consumption of oxygen were evaluated every 15 min over a period of 1 hour. Agitation was scored 3 (pronounced), 2 (moderate), 1 (slight) and 0 (absent), the total score maximally being 4×3=12. Oxygen consumption was measured on a mercury manometer simultaneously. Significant inhibition required a total score for agitation of less than 11 (0.3% in controls) or a final scale reading for oxygen consumption of less than 105 Hg units (1.8% in controls; mean=118 units). Blockade of amphetamine-induced agitation was considered complete at a total score of less than 4 and that of oxygen consumption at a scale reading of less than 90 Hg units (i.e. the agitation score and oxygen consumption level of normal rats which is never observed in amphetamine-treated controls). Listed are the ED50 values (mg/kg) obtained with compound (1) and the subsequent amphetamine challenge.

dopamine [3] = test: Apomorphine antagonism in rats (inhibition of apomorphine-induced agitation and stereotypy); format: in vivo; details: Rattus norvegicus, read-out: ED50 for inhibition of apomorphine-induced symptoms
Source text: Apomorphine Antagonism in Rats
The test procedure is described in Arch. Int. Pharmacodyn. […] In Table 1 are listed the ED50 values (mg/kg) for inhibition of apomorphine-induced symptoms obtained with compound (1) and the subsequent apomorphine challenge at different intervals (time).

Cc1nc2c(C)cccn2c(=O)c1CCN1CCC(c2noc3cc(F)ccc23)CC1 [Compound 1, 3-[2-[4-(6-fluoro-1,2-benzisoxazol-3-yl)-1-piperidinyl]ethyl]-2,9-dimethyl-4H-pyrido[1,2-a]-pyrimidin-4-one]
ED50 (dopamine [1]; iv, 0.5 h before apomorphine 0.31 mg/kg sc, read-out: ED50 (iv)): 1.2 µg/kg
ED50 (dopamine [1]; iv, 1 h before apomorphine 0.31 mg/kg sc, read-out: ED50 (iv)): 1.1 µg/kg
ED50 (dopamine [1]; iv, 2 h before apomorphine 0.31 mg/kg sc, read-out: ED50 (iv)): 1.2 µg/kg
ED50 (dopamine [1]; iv, 4 h before apomorphine 0.31 mg/kg sc, read-out: ED50 (iv)): 0.79 µg/kg
ED50 (dopamine [1]; iv, 8 h before apomorphine 0.31 mg/kg sc, read-out: ED50 (iv)): 0.89 µg/kg
ED50 (dopamine [1]; iv, 16 h before apomorphine 0.31 mg/kg sc, read-out: ED50 (iv)): 1.2 µg/kg
ED50 (dopamine [1]; iv, 32 h before apomorphine 0.31 mg/kg sc, read-out: ED50 (iv)): 2.9 µg/kg
ED50 (dopamine [1]; po, 0.5 h before apomorphine 0.31 mg/kg sc, read-out: ED50 (po)): 5 µg/kg
ED50 (dopamine [1]; po, 1 h before apomorphine 0.31 mg/kg sc, read-out: ED50 (po)): 1.5 µg/kg
ED50 (dopamine [1]; po, 2 h before apomorphine 0.31 mg/kg sc, read-out: ED50 (po)): 0.89 µg/kg
ED50 (dopamine [1]; po, 4 h before apomorphine 0.31 mg/kg sc, read-out: ED50 (po)): 1.2 µg/kg
ED50 (dopamine [1]; po, 8 h before apomorphine 0.31 mg/kg sc, read-out: ED50 (po)): 0.99 µg/kg
ED50 (dopamine [1]; po, 16 h before apomorphine 0.31 mg/kg sc, read-out: ED50 (po)): 2.4 µg/kg
ED50 (dopamine [1]; po, 32 h before apomorphine 0.31 mg/kg sc, read-out: ED50 (po)): 6.3 µg/kg
ED50 (dopamine [1]; sc, 0.5 h before apomorphine 0.31 mg/kg sc, read-out: ED50 (sc)): 4.5 µg/kg
ED50 (dopamine [1]; sc, 1 h before apomorphine 0.31 mg/kg sc, read-out: ED50 (sc)): 2.4 µg/kg
ED50 (dopamine [1]; sc, 2 h before apomorphine 0.31 mg/kg sc, read-out: ED50 (sc)): 1.4 µg/kg
ED50 (dopamine [1]; sc, 4 h before apomorphine 0.31 mg/kg sc, read-out: ED50 (sc)): 0.89 µg/kg
ED50 (dopamine [1]; sc, 8 h before apomorphine 0.31 mg/kg sc, read-out: ED50 (sc)): 1.2 µg/kg
ED50 (dopamine [1]; sc, 16 h before apomorphine 0.31 mg/kg sc, read-out: ED50 (sc)): 2.2 µg/kg
ED50 (dopamine [1]; sc, 32 h before apomorphine 0.31 mg/kg sc, read-out: ED50 (sc)): 4.5 µg/kg
ED50 (dopamine [2]; blockade: agitation score <4, read-out: ED50, blockade of amphetamine-induced agitation): 0.064 mg/kg
ED50 (dopamine [2]; blockade: scale reading <90 Hg units, read-out: ED50, blockade of oxygen hyperconsumption): 0.19 mg/kg
ED50 (dopamine [2]; inhibition: agitation score <11, read-out: ED50, inhibition of amphetamine-induced agitation): 0.014 mg/kg
ED50 (dopamine [2]; inhibition: scale reading <105 Hg units, read-out: ED50, inhibition of oxygen hyperconsumption): 0.057 mg/kg
ED50 (dopamine [3]; Time 0.5 between compound and apomorphine challenge (1.25 mg/kg iv)): 0.021 mg/kg
ED50 (dopamine [3]; Time 1 between compound and apomorphine challenge (1.25 mg/kg iv)): 0.018 mg/kg
ED50 (dopamine [3]; Time 2 between compound and apomorphine challenge (1.25 mg/kg iv)): 0.032 mg/kg
ED50 (dopamine [3]; Time 4 between compound and apomorphine challenge (1.25 mg/kg iv)): 0.068 mg/kg
ED50 (dopamine [3]; Time 8 between compound and apomorphine challenge (1.25 mg/kg iv)): 0.29 mg/kg
